Data taken from patent US10232023B2, “Methods for treatment of and prophylaxis against inflammatory disorders” (THE UNIVERSITY OF UTAH RESEARCH FOUNDATION, priority 2013, dated 2019).
“Also recorded” adds a separate entry of the source.

How the values were obtained:
[1] = system: human PMNs incubated with live S. aureus; experiment: NET formation by human PMNs incubated with live S. aureus; assay type: cell-based; settings: pretreatment 1 nM; live S. aureus (MOI 100)
Method: A human histone H3 release assay was used to quantify NET formation (n=2). NET-inhibitory activity of CRISPP was tested using in vitro models of two human infectious diseases: Staphylococcus aureus bacteremia and dengue fever.
Qualitative assessment of NET formation was performed as previously referenced in Yost et al., Blood, 2009, 113: 6419-6427 and McInturff et al., Blood, 2012, 120: 3118-3125. Briefly, primary PMNs isolated from preterm infants, healthy term infants, and healthy adults (2×10^6 cells/mL) were incubated with control buffer or stimulated with LPS (100 ng/mL), PMA (20 nM), or S. aureus bacteria (MOI 100) for 1 hour at 37° C. in 5% CO2/95% air on glass coverslips coated with poly-L-lysine. For selected experiments, primary PMNs were pre-incubated with autologous plasma, cord blood plasma, nNIF (1 nM), CRISPP (1 nM), or SCR (1 nM) for 1 hour prior to imaging. After pre-incubation and/or stimulation, PMNs were gently washed with PBS and incubated with a mixture of cell permeable (SYTO Green, MOLECULAR PROBES) and impermeable (SYTOX Orange, MOLECULAR PROBES) DNA fluorescent dyes. Confocal microscopy was accomplished using a FV300 1×81 Microscope and FLUOVIEW software (OLYMPUS). Both 20× and 60× objectives were used. […]
Supernatant total histone H3 content was determined as previously referenced in McInturff et al., Blood, 2012, 120: 3118-3125. […]

LPS-stimulated PMNs = experiment: NET formation by LPS-stimulated adult human PMNs (live cell imaging, histone H3 release); assay type: cell-based; settings: healthy adult PMNs; peptide/protein pre-incubation 1 hour (1 nM where stated); LPS 100 ng/mL
Method: PMNs from healthy adult donors and from 28 day old preterm infants were pre-incubated for one hour with thawed cord blood plasma from that particular preterm infant or with autologous plasma collected that day from either the preterm infant peripheral blood sample or the blood sample from the healthy adult. NET formation was then assessed in vitro following LPS-stimulation (100 ng/mL) for 2 hours.
(§1) Human PMNs isolated from healthy adult donors were stimulated with LPS (100 ng/mL) or phorbal-12-mystirate (PMA; 20 nM), ±nNIF (1 nM) or CRISPP (1 nM), pre-incubation (1 hour). Scrambled control peptide (SCR) generated using the identical amino acid content as CRISPP but linked in a random order was used as a control. NET formation was assessed 2 hours after stimulation.
(§2) Briefly, primary PMNs isolated from preterm infants, healthy term infants, and healthy adults (2×10^6 cells/mL) were incubated with control buffer or stimulated with LPS (100 ng/mL), PMA (20 nM), or S. aureus bacteria (MOI 100) for 1 hour at 37° C. in 5% CO2/95% air on glass coverslips coated with poly-L-lysine. For selected experiments, primary PMNs were pre-incubated with autologous plasma, cord blood plasma, nNIF (1 nM), CRISPP (1 nM), or SCR (1 nM) for 1 hour prior to imaging. After pre-incubation and/or stimulation, PMNs were gently washed with PBS and incubated with a mixture of cell permeable (SYTO Green, MOLECULAR PROBES) and impermeable (SYTOX Orange, MOLECULAR PROBES) DNA fluorescent dyes. Confocal microscopy was accomplished using a FV300 1×81 Microscope and FLUOVIEW software (OLYMPUS). Both 20× and 60× objectives were used. Z-series images were obtained at a step size 1 μm over a range of 20 μm for each field. OLYMPUS FLUOVIEW and ADOBE PHOTOSHOP CS2 software were used for image processing.
(§3) Supernatant total histone H3 content was determined as previously referenced in McInturff et al., Blood, 2012, 120: 3118-3125. After live cell imaging of control and stimulated primary PMNs (2×10^6/mL; various agonists), the cells were incubated with PBS containing DNase (40 U/mL) for 15 minutes at room temperature to break down and release NETs formed in response to stimulation. The supernatant was gently removed and centrifuged at 420×g for 5 minutes. The cell-free supernatant was then mixed 1:3 with 4× Laemmli buffer prior to western blotting. A polyclonal primary antibody against human histone H3 protein (CELL SIGNALING TECHNOLOGY) and infrared secondary antibodies (LI-COR BIOSCIENCES) were used. Imaging and densitometry were performed on the ODYSSEY™ infrared imaging system (LI-COR BIOSCIENCES).
To determine whether the 29 amino acid peptide identified in Example 5 were the substances circulating in umbilical cord blood responsible for the inhibition of NET formation, cord blood plasma was depleted of nNIF via affinity purification using the carboxy-terminus AAT antibody. nNIF was then eluted from the column and used in experiments to assess the NET-inhibitory activity of unaltered cord blood plasma, nNIF-depleted cord blood plasma, and affinity purified nNIF from cord blood plasma. As a control, recombinant AAT in nNIF-depleted cord blood was also assessed (see FIGS. 5A-5F).
Cord blood plasma depleted of both nNIF and full length AAT was collected as were the peptides captured by affinity purification for use in in vitro assays of NET formation. Full length, enzymatically active AAT (SIGMA) was also resuspended in elution buffer and tested in parallel.

[2] = system: PMNs isolated from healthy adult donors; experiment: PMN phagocytosis of E. coli BIOPARTICLES; assay type: cell-based, human; settings: 1 nM, 60 minutes pre-incubation, 4 hours
Method: PMNs were isolated from blood of healthy adult donors and resuspended in M-199 at a concentration of 2×10^6 cells/mL. Leukocytes were pre-incubated for 60 minutes under standard conditions with cytochalasin B and […] (1 nM), or SCR (1 nM). Following pre-incubation, PMNs were incubated with 6×10^6 E. coli BIOPARTICLES (E-13231, MOLECULAR PROBES) on a rotator for 4 hours under standard conditions. The PMNs were then washed and resuspended in the starting volume in M-199 before being spun down onto glass coverslips and fixed with 2% paraformaldehyde for 10 minutes and permeabilized with 0.1% Triton-X-100 for 10 minutes. Leukocytes were stained with WGA 555 (INVITROGEN) and TO[…] (MOLECULAR PROBES) and randomly selected high power visual field images were captured using confocal microscopy. IMAGE-J software (NIH) was used to determine the percentage of PMNs that were positive for fluorescently labeled E. coli BIOPARTICLES detected at 488 nm.

Mature ewe PMNs = experiment: NET formation by sheep PMNs; assay type: cell-based
Source text: Referring to FIGS. 13A and 13B, PMNs from preterm lamb cord blood and from mature ewes were isolated.

human PMNs and platelets = experiment: Platelet/PMN aggregation; assay type: cell-based; settings: LPS-stimulated PMNs mixed with thrombin-stimulated platelets
Method: Using protocols modified from Saboor et al., […] Med Sci, 2013, 20: 62-66, human PMNs (2×10^6 cells/mL) were isolated and incubated with […] or SCR (0.1-10 ng/ml) for 1 hour prior to addition of freshly isolated human platelet at a ratio of 100:1 for another 15 minute incubation. After this period, the cells (PMNs and platelets) were stimulated with thrombin (0.1 IU/mL) or control M-199 media for 1 hour. The cells were stained for 20 minutes with the following primary monoclonal antibodies: PE-conjugated CD41 and FITC-conjugated CD16. Isotype and fluorochrome matched control antibodies were used. Flow cytometry was performed using BECTON-DICKINSON FACSCAN and CELLQUEST software.

[3] = system: PMA-stimulated adult PMNs; experiment: NET formation by PMA-stimulated adult human PMNs; assay type: cell-based; settings: pre-incubation 1 nM, 1 hour; PMA 20 nM
Method: NET formation by PMA-stimulated adult PMNs with or without CRISPP pre-incubation was assessed.
as §1, §2, §3

[4] = system: human PMNs incubated with dengue virus; experiment: Dengue virus-induced NET formation by human PMNs; assay type: cell-based; settings: pretreatment 1 nM, 1 hour; dengue virus 0.05 MOI
Method: Mock incubation using dengue virus media without infection served as a control. Dengue virus induced NET formation by PMNs from human adults.
Primary PMNs isolated from healthy adults (2×10^6 cells/mL) were incubated with mock infection buffer or live dengue virus (MOI 0.05), as for the live cell imaging discussed above. After a 1 hour incubation, the infected PMNs were fixed with 2% p-FA for 10 minutes prior to incubation with fluorescently-labeled, cell permeable and cell impermeable DNA dyes, and imaged as for live cell imaging using confocal microscopy.

human platelets = experiment: Platelet activation (P-selectin expression); assay type: cell-based; settings: given alone or following thrombin stimulation (0.1 IU/mL)
Method: Using protocols modified from van Velzen, et al., Thromb Res, 2012, 130: 92-98, human platelets (1×10^8 cells/mL) were incubated with CRISPP or SCR (0.1-10 ng/ml) for 1 hour followed by stimulation with thrombin (0.1 IU/mL) or control M-199 media for 15 minutes. The cells were prepared for FACS analysis with the following primary, monoclonal antibodies for 20 minutes: PE-conjugated CD41a (platelet-specific marker) and FITC-conjugated CD62P (P-selectin). Isotype and fluorochrome matched control antibodies were used. After incubation at room temperature in the dark, the cells were lysed with FACS lysis buffer and analyzed by flow cytometry (BECTON-DICKINSON FACSCAN, CELLQUEST software).

Cancer-Associated SCM-Recognition, Immune Defense Suppression, and Serine Protease Protection Peptide [CRISPP, nNIF-related peptide (nNRP)]
NET formation induced by S. aureus [1]: completely blocked NET formation; also recorded: inhibited NET formation
NET formation by LPS-stimulated PMNs (LPS-stimulated PMNs): blocked NET formation by LPS-stimulated PMNs in a concentration dependent manner; also recorded: significantly inhibited NET formation
PMN phagocytosis [2]: did not significantly inhibit
NET formation by LPS-stimulated sheep PMNs (Mature ewe PMNs; mature ewe PMNs, pre-treatment 1 hour, LPS 100 ng/mL): inhibited NET formation in a dose-dependent manner
NET formation by PMA-stimulated sheep PMNs (Mature ewe PMNs; sheep PMNs, PMA): inhibited NET formation
Platelet/PMN association (flow cytometry) (human PMNs and platelets): did not alter
NET formation by PMA-stimulated PMNs [3]: significantly inhibited NET formation
NET formation induced by dengue virus [4]: completely blocked NET formation; also recorded: inhibited NET formation
Platelet p-selectin expression (human platelets): did not alter
